The values that follow come from patent publication US5985937A, “Use of 2,4-distributed phenol derivatives as 5-lipoxygenase inhibitors” (priority 1994, dated 1999).

Series [1] is described as follows: solubility in aqueous medium. In kind it is physicochemical. To be noted: in words. Here is the method: Due to the insolubility of Bobel-24 in aqueous medium, it was previously dissolved in a 50% solution of lysine. An anionic sulfonated detergent was used as foaming agent, containing 10-15% tegobetaine, 20-30% texapone N-40, and water. A 2% shampoo was prepared with the following composition: 2 g Bobel-24, 12 ml of 50% aqueous solution of lysine, 48 ml of water, 40 ml of the anionic sulfonated detergent.

Series [2] deals with feline asthma. As to the kind of experiment: treatment of cats with feline asthma. Format: in vivo, cat. The following applies: 5 mg/day, cream applied to the leg and licked.
In series [3] the test system is tendonitis. Briefly: treatment of horses with tendonitis. The following applies: 15 mg/day intraarticular infiltration. In kind it is in vivo, horse. Here is the method:
Twenty five horses suffering from tendonitis, with claudication of the corresponding tendon, were treated with 15 mg/day via intraarticular infiltration of Bobel-24.

Series [4] can be described thus: acute toxicity in Sprague-Dawley rats. The following applies: rat, in vivo, po.
Series [5] concerns chronic intestinal pathology, chronic lymphoplasmocitary enteritis and hemorrhagic cholitis. As to the kind of experiment: treatment of dogs with gastrointestinal diseases. Format: in vivo, dog. The following applies: ten dogs, 1-2 mg/kg.day. Here is the method:
A total of ten dogs diagnosed chronic intestinal pathology, chronic lymphoplasmocitary enteritis (diagnosed through a biopsy and more than a year of evolution) and hemorrhagic cholitis, were treated with doses of 1-2 mg/kg.day of Bobel-24.

Series [6] has as its system bursitis. Briefly: treatment of horses with bursitis. Format: in vivo, horse. The following applies: seven young horses, 15 mg/day intraarticular infiltration.
The subject of series [7] is canine arthritis. As to the kind of experiment: clinical trial on canine arthritis. Set-up: key: +++: very good response, total recovery; ++: good response, functionability recovery; +: moderate response, improvement; -: negative response or no apparent improvement. Format: in vivo, dog. The following applies: 2 mg/kg day orally, 15 days. On the procedure:
After the diagnosis, each animal was treated with Bobel capsules during 45 days, with a follow up every 15 days. Blood, synovial liquid and urine samples were taken at the beginning and at the end of the treatment in order to perform the following tests: Synovial liquid analysis (cytology, cytokines 1,6,8 and TNF); LTB4; LTC4; PGE2; hematic count and leukocyte content; standard serum biochemistry; urine sediment; Rose-Wealer test; and radiology control. The methodology for clinical validation involved applying evaluating uniform parameters and classifying the results according to the following notations: (+++)=very good response, total recovery; (++)=good response, functionability recovery; (+)=moderate response, improvement; (-)=negative response or no apparent improvement.
After the diagnosis each animal was treated with capsules of Bobel-24 during 15 days. Blood, synovial liquid and urine samples were taken at the beginning and at the end of the treatment in order to perform the same tests as in example 13, using the same notation for the clinical evolution.

For series [8], the system named is dogs. Briefly: acute toxicity in dogs. To be noted: after 28 days at doses of 200, 300, 400, 1000 and 2000 mg/kg. Format: in vivo, dog.
Series [9] deals with rheumatoid arthritis, hip dysplasia, equine cauda, deforming spondolitis or coxarthrosis. Briefly: treatment of dogs with articular or musculoskeletal diseases. Format: in vivo, dog. To be noted: twenty dogs, oral 1-3 mg/kg.day.
Series [10] deals with canine seborrheic dermatitis. As to the kind of experiment: clinical trial on canine seborrheic dermatitis. In kind it is in vivo, dog. Set-up: key: +++: very good response, clinically cured; ++: good response, marked lowering in the clinical signs; +: moderate response, improvement; -: negative response or no apparent improvement. The following applies: weekly bath 2% shampoo, 15 days. On the procedure: (§1) The animals had been diagnosed to suffer from seborrheic dermatitis, and the diagnosis was confirmed by a biopsy. The treatment consisted of a weekly bath with a 2% Bobel-24 shampoo and evaluation of the treatment after 15 days. The efficiency of the treatment was analyzed evaluating the following therapeutic symptoms; removal of scabs and scales, greasiness reduction, sheborrheic odor reduction, relieve of the pruritus, and antiinflammatory effect. […] In view of the results the following conclusions were reached: […]

Series [11] relates to canine seborrheic dermatitis. As to the kind of experiment: clinical trial on canine seborrheic dermatitis. Format: in vivo, dog. Set-up: key: +++: very good response, total recovery; ++: good response, functionability recovery; +: moderate response, improvement; -: negative response or no apparent improvement. The following applies: weekly bath 2% shampoo, 15 days. Here is the method: as §1

In series [12] the test system is dyspnea. Briefly: treatment of race horses with dyspnea. Format: in vivo, horse. To be noted: eleven race horses, intravenous 50 mg/day, one week. Here is the method:
Eleven race horses manifesting dyspnea of variable degree, accompanied of great sensibility in the movements and, in the majority of the cases respiratory anxiety, coughs and mucous-purulent nasal flux, were treated with an intravenous dose of Bobel-24 of 50 mg/day during one week.

Series [13] concerns seborrheic dermatitis. Briefly: treatment of dogs with seborrheic dermatitis. Format: in vivo, dog. The following applies: 15 dogs (Cockers), phase I or II, 1 mg/kg.day p.o. plus 2% shampoo. On the procedure:
A total of 15 dogs (Cockers) suffering from seborrheic dermatitis in phase I or II were treated with doses of 1 mg/kg.day p.o. of Bobel-24, and were simultaneously washed with a shampoo containing 2% of the same product.

Series [14] has as its system herpes simplex. As to the kind of experiment: test for antiviral activity in vitro. The source says: The 2,4-disubstituted phenol derivatives of the present invention are anti-herpetic agents in vivo, since they eliminate the symptoms of patients suffering from different types of herpes simplex (genital herpes, herpes of mouth and lips, recurrent herpes), and of patients suffering from herpes zoster. There is no relapse after leaving the treatment. The products are active both intramuscularly and topically, the first via being preferred.
A total of 25 patients with symptoms of different herpes simplex (genital, buccal or reincident) were treated with 15 mg/day of Bobel-24, intramuscularly, during a month, with the following results: with the ten patients of genital herpes simplex, the results was excellent in 7 cases, good in 2 and regular in 1; of the twelve with buccal herpes simplex it was excellent in 9 cases, good in 2 and regular in 1; of the 3 with reincident herpes it was excellent in 2 of the cases and good in 1. […] The case of genital herpes which resulted "regular" was an obese and diabetic […], and although there was an improvement there was also reincidency. Independently an test for antiviral activity in vitro resulted negative.

The mark [15] stands for this setting: b363 Poodle 6, b364 Mongrel 14, b374 Mongrel 10, b376 Belgian shepherd 10, b382 Poodle 9, b392 Mongrel 5 years.
Setting [16] is: b369 German shepherd 10, b377 Pekinese 11, b379 German shepherd 3 years.

By LD50 is commonly meant the dose at which mortality reaches 50%.

Bounds are passed on as bounds.

As for `Oc1c(I)cc(I)cc1I` [Bobel-24, 2,4,6-triiodophenol], in series [1], the “solubility in aqueous medium” value is “insolubility”. The “results in feline asthma” value in series [2] is given as “satisfactory results in many cases”. In [3] (horses, 15 days), the “outcome in the rest of the cases” value was “the claudication disappeared within the same period of time, but an inflammatory ring persisted around the tendon”. In addition, the “cases in which the process was totally reduced in 15 days” value in series [3] (of twenty five horses) was found to be 17 cases. In series [4], this compound returned an LD50 of 1500 mg/kg. In addition, in series [5], the response result is listed as “responded very positively in a short time (1-2 weeks)”. Further, the reduction in inflammation entry in series [6] was “a reduction in the inflammation was obtained”. For the same compound, the “Evolution, knee instability” value in series [7] (German shepherd 2 years) is given as “++”. Further, the “Evolution, osteochondritis” value in series [7] (Mongrel 1 year) is on record as “+++”. In [7] (b340 Mongrel 8, b342 German shepherd 6, b343 Rottwailer 1, b347 Mongrel 7 years), the “Evolution, arthritis” value is given as “+++”. Also, the “acute toxicity in dogs” value in series [8] is recorded as “not observed”. Besides, the response entry in series [9] is recorded as “very good response within 1 or 2 weeks”. Besides, the “Evolution, etiology allergic” value in series [10] (setting [15]) is listed as “++”. Further, the “Evolution, etiology leishmania” value in series [10] (setting [16]) is reported as “++”. In addition, in [11] (setting [15]), the “Evolution, etiology allergic” value is “+”. Further, the “Evolution, etiology leishmania” value in series [11] (setting [16]) was “+”. Moreover, in series [12], the horses suffering relapse result is given as “None of the horses suffered relapse”; the improvement entry was “The improvement was quite high”; the “time to disappearance of all the symptoms” value was no more than 9 days; the “time to reincorporation to training, without any sequel” value is 21 days. Also, in [13], the “disappearance of the dermatitis” value was “practically a total disappearance of the dermatitis”. The “antiviral activity in vitro” value in series [14] is given as “negative”.
